Experimental data from ChEMBL document CHEMBL4334450, “Green synthesis, biological evaluation, molecular docking studies and 3D-QSAR analysis of novel phenylalanine linked quinazoline-4(3H)-one-sulphonamide hybrid entities distorting the malarial reductase activity in folate pathway” (Bioorg Med Chem, 2019).
In brackets after ≈: the same amount, converted by molar mass.

Tests used:
Plasmodium falciparum [1] = test: Antiplasmodial activity against Plasmodium falciparum infected in human RBC […] by MTT assay; type: functional, organism-based
Erythrocyte = test: Cytotoxicity against human RBC assessed as reduction in cell viability by MTT assay; type: cell-based
Plasmodium falciparum [2] = test: Antimalarial activity against Plasmodium falciparum FCR3 infected in human erythrocytes by Giemsa staining analysis; type: functional, organism-based
Dihydrofolate reductase = molecular target: T1, Dihydrofolate reductase (Bos taurus, UniProt P00376); test: Inhibition of bovine liver DHFR using FH2 as substrate incubated for 2 mins followed by substrate addition
T1 sequence (P00376 whole entry): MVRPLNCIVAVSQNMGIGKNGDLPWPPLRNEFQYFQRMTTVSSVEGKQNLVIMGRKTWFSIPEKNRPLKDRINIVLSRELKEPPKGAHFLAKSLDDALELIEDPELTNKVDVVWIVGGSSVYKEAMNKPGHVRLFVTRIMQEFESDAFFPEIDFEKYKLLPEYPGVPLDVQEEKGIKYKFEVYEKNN

Plasmodium falciparum [3] = test: Antiplasmodial activity against Plasmodium falciparum infected in human RBC assessed as reduction in parasite LDH activity by spectrophotometric assay; type: functional, organism-based
[4] = Therapeutic index, ratio of CC50 for human RBC to EC50 for Plasmodium falciparum infected in human RBC; type: toxicity; conditions: human red blood cells (RBC), read-out: Ratio CC50/EC50
Vero = test: Cytotoxicity against African green monkey Vero cells assessed as reduction in cell viability incubated for 72 hrs by CellTiter 96 Non-radioactive Cell Proliferation Assay; type: cell-based; conditions: Chlorocebus sabaeus
bovine liver DHFR = test: Therapeutic index, ratio of IC50 for African green monkey Vero cells to IC50 for bovine liver DHFR; type: toxicity; conditions: read-out: Ratio IC50

CCN(CC)CCCC(C)Nc1ccnc2cc(Cl)ccc12 (centres undefined) [CHLOROQUINE]
EC50 (Plasmodium falciparum [1]): 28.97 ppm | CC50 (Erythrocyte): 466.66 ppm

CC(=O)Nc1ccc(S(=O)(=O)NC(Cc2ccccc2)c2nc3ccccc3c(=O)n2/N=C/c2ccccc2O)cc1 (centres undefined)
IC50 (Plasmodium falciparum [2]): 0.78 µg/mL (≈ 1.34 µM)

CC(=O)Nc1ccc(S(=O)(=O)NC(Cc2ccccc2)c2nc3ccccc3c(=O)n2/N=C/c2cccc(C)c2)cc1 (centres undefined)
IC50 (Plasmodium falciparum [2]): 0.78 µg/mL (≈ 1.35 µM)

CC(=O)Nc1ccc(S(=O)(=O)NC(Cc2ccccc2)c2nc3ccccc3c(=O)n2/N=C/c2ccccc2C)cc1 (centres undefined)
IC50 (Plasmodium falciparum [2]): 1.26 µg/mL (≈ 2.17 µM)

CC(=O)Nc1ccc(S(=O)(=O)NC(Cc2ccccc2)c2nc3ccccc3c(=O)n2/N=C/c2cccc(F)c2)cc1 (centres undefined)
IC50 (Dihydrofolate reductase): 49.7 nM | IC50 (Plasmodium falciparum [2]): 0.084 µg/mL (≈ 0.144 µM) | IC50 (Plasmodium falciparum [3]): 4672 ppm | EC50 (Plasmodium falciparum [1]): 2831 ppm | CC50 (Erythrocyte): 58408 ppm | selectivity ratio [4]: 20.6 | IC50 (Vero): 15 µg/mL (≈ 25.7 µM) | selectivity ratio (bovine liver DHFR): 517

COc1ccccc1/C=N/n1c(C(Cc2ccccc2)NS(=O)(=O)c2ccc(NC(C)=O)cc2)nc2ccccc2c1=O (centres undefined)
IC50 (Plasmodium falciparum [2]): 1.05 µg/mL (≈ 1.77 µM)

CC(=O)Nc1ccc(S(=O)(=O)NC(Cc2ccccc2)c2nc3ccccc3c(=O)n2/N=C/c2ccc([N+](=O)[O-])cc2)cc1 (centres undefined)
IC50 (Plasmodium falciparum [2]): 0.72 µg/mL (≈ 1.18 µM)

CC(=O)Nc1ccc(S(=O)(=O)NC(Cc2ccccc2)c2nc3ccccc3c(=O)n2/N=C/c2ccc(C)cc2)cc1 (centres undefined)
IC50 (Dihydrofolate reductase): 94.9 nM | IC50 (Plasmodium falciparum [2]): 0.067 µg/mL (≈ 0.116 µM) | IC50 (Plasmodium falciparum [3]): 8432 ppm | EC50 (Plasmodium falciparum [1]): 1106 ppm | selectivity ratio [4]: 1670 | IC50 (Vero): 15 µg/mL (≈ 25.9 µM) | selectivity ratio (bovine liver DHFR): 273

CC(=O)Nc1ccc(S(=O)(=O)NC(Cc2ccccc2)c2nc3ccccc3c(=O)n2/N=C/c2ccc(O)cc2)cc1 (centres undefined)
IC50 (Plasmodium falciparum [2]): 0.68 µg/mL (≈ 1.17 µM)

COc1cccc(/C=N/n2c(C(Cc3ccccc3)NS(=O)(=O)c3ccc(NC(C)=O)cc3)nc3ccccc3c2=O)c1 (centres undefined)
IC50 (Plasmodium falciparum [2]): 1.01 µg/mL (≈ 1.7 µM)

CC(=O)Nc1ccc(S(=O)(=O)NC(Cc2ccccc2)c2nc3ccccc3c(=O)n2/N=C/c2ccc(Cl)cc2)cc1 (centres undefined)
IC50 (Plasmodium falciparum [2]): 0.84 µg/mL (≈ 1.4 µM)

CC(=O)Nc1ccc(S(=O)(=O)NC(Cc2ccccc2)c2nc3ccccc3c(=O)n2/N=C/c2cccc(O)c2)cc1 (centres undefined)
IC50 (Plasmodium falciparum [2]): 1.24 µg/mL (≈ 2.13 µM)

CC(=O)Nc1ccc(S(=O)(=O)NC(Cc2ccccc2)c2nc3ccccc3c(=O)n2/N=C/c2cccc([N+](=O)[O-])c2)cc1 (centres undefined)
IC50 (Plasmodium falciparum [2]): 1.12 µg/mL (≈ 1.83 µM)

CC(=O)Nc1ccc(S(=O)(=O)NC(Cc2ccccc2)c2nc3ccccc3c(=O)n2/N=C/c2ccccc2)cc1 (centres undefined)
IC50 (Plasmodium falciparum [2]): 1.28 µg/mL (≈ 2.26 µM)

CC(=O)Nc1ccc(S(=O)(=O)NC(Cc2ccccc2)c2nc3ccccc3c(=O)n2/N=C/c2cccc(Br)c2)cc1 (centres undefined)
IC50 (Plasmodium falciparum [2]): 0.92 µg/mL (≈ 1.43 µM)

CC(=O)Nc1ccc(S(=O)(=O)NC(Cc2ccccc2)c2nc3ccccc3c(=O)n2/N=C/c2ccccc2Cl)cc1 (centres undefined)
IC50 (Plasmodium falciparum [2]): 0.72 µg/mL (≈ 1.2 µM)

CC(=O)Nc1ccc(S(=O)(=O)NC(Cc2ccccc2)c2nc3ccccc3c(=O)n2/N=C/c2ccc(Br)cc2)cc1 (centres undefined)
IC50 (Dihydrofolate reductase): 129 nM | IC50 (Plasmodium falciparum [2]): 0.092 µg/mL (≈ 0.143 µM) | IC50 (Plasmodium falciparum [3]): 96.38 ppm | EC50 (Plasmodium falciparum [1]): 115.61 ppm | CC50 (Erythrocyte): 10575 ppm | selectivity ratio [4]: 91.5 | IC50 (Vero): 15 µg/mL (≈ 23.3 µM) | selectivity ratio (bovine liver DHFR): 181

C=C[C@H]1CN2CC[C@H]1C[C@H]2[C@H](O)c1ccnc2ccc(OC)cc12 [QUININE]
IC50 (Plasmodium falciparum [2]): 0.268 µg/mL (≈ 0.826 µM)

CC(=O)Nc1ccc(S(=O)(=O)NC(Cc2ccccc2)c2nc3ccccc3c(=O)n2/N=C/c2ccccc2F)cc1 (centres undefined)
IC50 (Plasmodium falciparum [2]): 1.28 µg/mL (≈ 2.19 µM)

CC(=O)Nc1ccc(S(=O)(=O)NC(Cc2ccccc2)c2nc3ccccc3c(=O)n2/N=C/c2cccc(Cl)c2)cc1 (centres undefined)
IC50 (Dihydrofolate reductase): 81.7 nM | IC50 (Plasmodium falciparum [2]): 0.082 µg/mL (≈ 0.137 µM) | IC50 (Plasmodium falciparum [3]): 524.8 ppm | EC50 (Plasmodium falciparum [1]): 368.97 ppm | CC50 (Erythrocyte): 18850 ppm | selectivity ratio [4]: 51.1 | IC50 (Vero): 15 µg/mL (≈ 25 µM) | selectivity ratio (bovine liver DHFR): 306

CC(=O)Nc1ccc(S(=O)(=O)NC(Cc2ccccc2)c2nc3ccccc3c(=O)n2/N=C/c2ccccc2[N+](=O)[O-])cc1 (centres undefined)
IC50 (Plasmodium falciparum [2]): 1.52 µg/mL (≈ 2.49 µM)

COc1ccc(/C=N/n2c(C(Cc3ccccc3)NS(=O)(=O)c3ccc(NC(C)=O)cc3)nc3ccccc3c2=O)cc1 (centres undefined)
IC50 (Plasmodium falciparum [2]): 0.72 µg/mL (≈ 1.21 µM)

CC(=O)Nc1ccc(S(=O)(=O)NC(Cc2ccccc2)c2nc3ccccc3c(=O)n2/N=C/c2ccc(F)cc2)cc1 (centres undefined)
IC50 (Dihydrofolate reductase): 61.7 nM | IC50 (Plasmodium falciparum [2]): 0.067 µg/mL (≈ 0.115 µM) | IC50 (Plasmodium falciparum [3]): 3402 ppm | EC50 (Plasmodium falciparum [1]): 1909 ppm | CC50 (Erythrocyte): 29330 ppm | selectivity ratio [4]: 15.4 | IC50 (Vero): 15 µg/mL (≈ 25.7 µM) | selectivity ratio (bovine liver DHFR): 417

CC(=O)Nc1ccc(S(=O)(=O)NC(Cc2ccccc2)c2nc3ccccc3c(=O)n2/N=C/c2ccccc2Br)cc1 (centres undefined)
IC50 (Plasmodium falciparum [2]): 0.7 µg/mL (≈ 1.09 µM)
